In paper PMC6597268 (Biochemistry, 2019):
Each block holds one molecule with its values, some of them ahead of it.

Columns and labels:
MitE = target: T1, MitE (Streptomyces lavendulae, UniProt Q9X5R7); test: HPLC of AHBA released from MmcB by KOH or cysteamine; assay type: biochemical; settings: holo-MmcB as acceptor
T1 sequence (Q9X5R7 1-707): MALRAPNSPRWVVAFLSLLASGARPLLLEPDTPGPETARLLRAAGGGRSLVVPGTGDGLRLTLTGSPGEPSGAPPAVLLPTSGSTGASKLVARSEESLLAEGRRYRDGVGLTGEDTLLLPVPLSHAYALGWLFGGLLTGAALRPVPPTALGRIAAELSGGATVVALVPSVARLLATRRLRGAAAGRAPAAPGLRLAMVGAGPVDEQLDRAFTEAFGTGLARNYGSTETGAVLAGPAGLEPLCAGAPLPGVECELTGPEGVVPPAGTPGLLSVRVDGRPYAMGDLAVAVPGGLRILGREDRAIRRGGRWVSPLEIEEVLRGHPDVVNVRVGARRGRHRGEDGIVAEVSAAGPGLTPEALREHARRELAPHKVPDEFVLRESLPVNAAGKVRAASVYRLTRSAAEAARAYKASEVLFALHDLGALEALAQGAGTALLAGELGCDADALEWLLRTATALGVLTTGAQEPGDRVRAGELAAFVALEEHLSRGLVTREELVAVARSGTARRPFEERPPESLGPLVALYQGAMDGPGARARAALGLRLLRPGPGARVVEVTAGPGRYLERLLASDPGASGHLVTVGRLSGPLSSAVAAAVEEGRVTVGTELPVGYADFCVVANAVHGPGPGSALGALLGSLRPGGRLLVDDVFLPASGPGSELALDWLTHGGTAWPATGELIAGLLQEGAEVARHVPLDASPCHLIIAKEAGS
T1 sequence (Q9X5S0 1-93 partner): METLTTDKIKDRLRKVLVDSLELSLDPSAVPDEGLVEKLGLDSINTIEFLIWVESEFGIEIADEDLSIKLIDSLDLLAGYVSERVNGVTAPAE

MitB = MitB (Streptomyces lavendulae, UniProt Q9WW09); test: anion exchange HPLC steady-state kinetics, Michaelis-Menten fit; assay type: biochemical; settings: pseudo-first order

Compound: Nc1ncnc2c1ncn2[C@@H]1O[C@H](COP(=O)(O)OP(=O)(O)OP(=O)(O)O)[C@@H](O)[C@H]1O [ATP]
HPLC of AHBA released from MmcB by KOH or cysteamine (MitE; AHBA): we investigated the ability of MitE to load AHBA to holo-MmcB in the presence of ATP

Km (MitB; 2 mM UDP-GlcNAc as donor): 10 ± 3.3 mM
Compound: CC(=O)NCCSC(=O)c1cc(N)cc(O)c1 [SNAc-AHBA]

Km (MitB; 2 mM SNAc-AHBA (unsaturating) as acceptor): 0.94 ± 0.15 mM
Compound: CC(=O)N[C@H]1[C@@H](OP(=O)(O)OP(=O)(O)OC[C@H]2O[C@@H](n3ccc(=O)[nH]c3=O)[C@H](O)[C@@H]2O)O[C@H](CO)[C@@H](O)[C@@H]1O [UDP-GlcNAc]

Compound: Nc1cc(O)cc(C(=O)O)c1 [AHBA]
HPLC of AHBA released from MmcB by KOH or cysteamine (MitE; ATP): These evidences in combination suggest that MitE catalyzes the loading of AHBA onto holo-MmcB
